# Literature values, collected in patent publication US20130195986A1, “New Particles of Tetracyclines and Protecting Agent” (HOVIONE INTER LTD, priority 2010, published 2013).
# Tested on: staining of the teeth and bones and pigmentation of the thyroid gland
# Conditions: rats; simultaneous administration of ascorbic acid (vitamin C) with minocycline
smiles,measurement,value
O=C1O[C@H]([C@@H](O)CO)C(O)=C1O [ascorbic acid],staining of the teeth and bones and pigmentation of the thyroid gland,prevented staining of the teeth and bones and pigmentation of the thyroid gland
